ChEMBL document CHEMBL3407467, “Recent advances in the chemistry and biology of pyridopyrimidines” (Eur J Med Chem, 2015)

How the values were obtained:
[1] = Inhibition of recombinant Pneumocystis jirovecii DHFR expressed in Escherichia coli Rosetta Gami B (DE3) by spectrophotometric assay
[2] = molecular target: T1, Dihydrofolate reductase (Homo sapiens, UniProt P00374); experiment: Inhibition of recombinant human DHFR expressed in Escherichia coli Rosetta Gami B (DE3) by spectrophotometric assay
T1 sequence (P00374 whole entry): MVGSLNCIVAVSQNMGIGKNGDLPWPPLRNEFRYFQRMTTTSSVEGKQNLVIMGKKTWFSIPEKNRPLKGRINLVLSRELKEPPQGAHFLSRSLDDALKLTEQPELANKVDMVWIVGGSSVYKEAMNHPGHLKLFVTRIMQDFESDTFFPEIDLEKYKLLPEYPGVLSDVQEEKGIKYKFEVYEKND

[3] = molecular target: T2, Dihydrofolate reductase (Pneumocystis carinii, UniProt P16184); experiment: Inhibition of recombinant Pneumocystis carinii DHFR expressed in Escherichia coli Rosetta Gami B (DE3) by spectrophotometric assay
T2 sequence (P16184 whole entry): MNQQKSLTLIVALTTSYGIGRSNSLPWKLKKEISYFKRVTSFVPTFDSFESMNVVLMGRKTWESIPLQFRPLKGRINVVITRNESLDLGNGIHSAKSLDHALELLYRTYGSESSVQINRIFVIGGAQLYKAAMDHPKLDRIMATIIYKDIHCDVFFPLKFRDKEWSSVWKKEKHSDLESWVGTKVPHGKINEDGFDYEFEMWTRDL

[4] = molecular target: Dihydrofolate reductase (Pneumocystis carinii, UniProt P16184, K37Q); experiment: Inhibition of Pneumocystis carinii DHFR K37Q mutant by spectrophotometric assay
Sequence of Dihydrofolate reductase (Pneumocystis carinii, UniProt P16184, K37Q) (P16184 whole entry K37Q): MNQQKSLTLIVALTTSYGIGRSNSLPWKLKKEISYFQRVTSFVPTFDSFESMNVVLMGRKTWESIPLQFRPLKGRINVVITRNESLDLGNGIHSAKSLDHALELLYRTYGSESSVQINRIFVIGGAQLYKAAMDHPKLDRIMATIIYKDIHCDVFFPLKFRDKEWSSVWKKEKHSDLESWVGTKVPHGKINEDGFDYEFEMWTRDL

[5] = Inhibition of Pneumocystis carinii DHFR K37Q/F69N mutant by spectrophotometric assay
[6] = Inhibition of human DHFR mutant by spectrophotometric assay
[7] = Inhibition of Pneumocystis jirovecii DHFR
[8] = molecular target: Receptor tyrosine-protein kinase erbB-2 (Homo sapiens, UniProt P04626); experiment: Inhibition of ErbB-2 intracellular domain (unknown origin) purified from a baculovirus expression system using Biotin-(amino hexonoic acid)-EEEEYFELVAKKK-CONH2 as substrate after 10 mins by scintillation counting in presence of [gamma-33P]ATP
Sequence of Receptor tyrosine-protein kinase erbB-2 (P04626 whole entry, the tested form may be a part): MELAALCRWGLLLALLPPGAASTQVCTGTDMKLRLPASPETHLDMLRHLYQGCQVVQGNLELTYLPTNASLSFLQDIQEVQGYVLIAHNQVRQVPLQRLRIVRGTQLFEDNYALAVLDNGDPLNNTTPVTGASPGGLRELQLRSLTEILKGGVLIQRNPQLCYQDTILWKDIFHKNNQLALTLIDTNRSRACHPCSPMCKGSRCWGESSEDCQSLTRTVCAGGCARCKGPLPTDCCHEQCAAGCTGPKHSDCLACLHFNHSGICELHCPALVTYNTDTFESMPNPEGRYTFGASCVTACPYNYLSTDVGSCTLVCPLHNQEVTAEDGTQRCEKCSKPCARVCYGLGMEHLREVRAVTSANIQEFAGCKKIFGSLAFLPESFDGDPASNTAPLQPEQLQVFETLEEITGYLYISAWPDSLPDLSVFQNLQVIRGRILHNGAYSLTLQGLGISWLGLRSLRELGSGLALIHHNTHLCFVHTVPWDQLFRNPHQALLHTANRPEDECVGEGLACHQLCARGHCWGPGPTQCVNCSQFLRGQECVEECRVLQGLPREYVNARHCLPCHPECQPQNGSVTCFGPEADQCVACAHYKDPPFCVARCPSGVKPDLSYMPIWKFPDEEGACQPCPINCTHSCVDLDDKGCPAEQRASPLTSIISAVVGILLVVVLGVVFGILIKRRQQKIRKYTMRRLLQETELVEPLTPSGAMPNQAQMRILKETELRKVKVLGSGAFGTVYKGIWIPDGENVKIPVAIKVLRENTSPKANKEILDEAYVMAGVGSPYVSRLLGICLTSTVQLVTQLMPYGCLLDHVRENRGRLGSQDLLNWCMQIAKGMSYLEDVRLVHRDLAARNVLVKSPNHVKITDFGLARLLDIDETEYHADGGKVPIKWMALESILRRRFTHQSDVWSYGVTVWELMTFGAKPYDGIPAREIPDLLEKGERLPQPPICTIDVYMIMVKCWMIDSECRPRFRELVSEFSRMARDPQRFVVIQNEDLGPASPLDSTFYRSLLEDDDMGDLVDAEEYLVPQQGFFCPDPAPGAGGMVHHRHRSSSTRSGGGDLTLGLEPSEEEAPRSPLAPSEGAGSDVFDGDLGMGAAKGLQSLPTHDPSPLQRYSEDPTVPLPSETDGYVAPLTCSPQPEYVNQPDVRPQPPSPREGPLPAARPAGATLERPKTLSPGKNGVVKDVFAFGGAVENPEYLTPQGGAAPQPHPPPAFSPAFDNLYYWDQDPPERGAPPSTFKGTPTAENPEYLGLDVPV

[9] = molecular target: Adenosine kinase (Homo sapiens, UniProt P55263); experiment: Inhibition of adenosine kinase (unknown origin)
Sequence of Adenosine kinase (P55263 whole entry): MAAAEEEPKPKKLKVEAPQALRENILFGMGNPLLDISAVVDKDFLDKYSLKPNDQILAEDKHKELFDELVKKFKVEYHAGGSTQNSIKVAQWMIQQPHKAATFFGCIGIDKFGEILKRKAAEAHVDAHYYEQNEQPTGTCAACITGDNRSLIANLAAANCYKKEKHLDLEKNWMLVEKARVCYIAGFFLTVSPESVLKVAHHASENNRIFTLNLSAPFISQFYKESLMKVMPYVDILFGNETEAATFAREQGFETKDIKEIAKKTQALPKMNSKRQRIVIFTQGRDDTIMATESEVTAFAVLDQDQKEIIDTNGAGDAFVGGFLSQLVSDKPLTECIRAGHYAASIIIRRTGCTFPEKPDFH

For `Nc1nc(N)c2cc(CNc3cc(Cl)ccc3Cl)cnc2n1`, the Ki [1] was 2.7 nM, the Ki [2] was 24.4 nM and the Ki [3] was 6.3 nM. It also gave a Ki [4] of 0.26 nM, a Ki [5] of 0.71 nM and a Ki [6] of 0.58 nM.
`CN(c1cc(F)c(F)c(F)c1)c1cnc2nc(N)nc(N)c2c1` gave an IC50 [7] of 4.2 nM.
For `CN(CCO)c1cc2c(Nc3ccc4c(cnn4Cc4ccccc4)c3)ncnc2cn1`, the IC50 [8] was 30 nM.
`[O-][S+]1CCN(Cc2ccc(-c3cc4c(Nc5ccc(OCc6cccc(F)c6)cc5)ncnc4cn3)o2)CC1` gave an IC50 [8] of 21 nM.
Molecule `CS(=O)(=O)CCNCc1ccc(-c2cc3c(Nc4ccc(OCc5ccccc5)cc4)ncnc3cn2)o1` has an IC50 [8] of 26 nM.
With `Nc1ncnc2nc(-c3ccc(N4CCOCC4)nc3)cc(-c3cccc(Br)c3)c12` the IC50 [9] was 2 nM.
For `CN(C)c1cc2c(Nc3ccc4c(cnn4Cc4ccccc4)c3)ncnc2cn1` [GW282974X], the IC50 [8] was 16 nM.
